ChEMBL document CHEMBL1201862, “PubChem BioAssay data set” (2004)
Calls of active or inactive are those of the source.

How the values were obtained:
[1] = molecular target: Photoreceptor-specific nuclear receptor (Homo sapiens, UniProt Q9Y5X4); assay type: functional;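 note: potency for compounds that break the NR2E3 corepressor complex and count as activators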
[2] = molecular target: Peroxisome proliferator-activated receptor gamma/Nuclear receptor coactivator 1 (Homo sapiens, UniProt P37231); assay: (§1) TR-FRET dose response biochemical High Throughput Screening assay for agonists of the steroid receptor coactivator 1 (SRC-1) recruitment by the peroxisome proliferator-activated receptor gamma (PPAR gamma): non-selective agonists. [Related pubchem assays (depositor defined):AID1300, AID1808, AID504735, AID631]; assay type: protein assay
Sequence of Peroxisome proliferator-activated receptor gamma/Nuclear receptor coactivator 1 (P37231 whole entry): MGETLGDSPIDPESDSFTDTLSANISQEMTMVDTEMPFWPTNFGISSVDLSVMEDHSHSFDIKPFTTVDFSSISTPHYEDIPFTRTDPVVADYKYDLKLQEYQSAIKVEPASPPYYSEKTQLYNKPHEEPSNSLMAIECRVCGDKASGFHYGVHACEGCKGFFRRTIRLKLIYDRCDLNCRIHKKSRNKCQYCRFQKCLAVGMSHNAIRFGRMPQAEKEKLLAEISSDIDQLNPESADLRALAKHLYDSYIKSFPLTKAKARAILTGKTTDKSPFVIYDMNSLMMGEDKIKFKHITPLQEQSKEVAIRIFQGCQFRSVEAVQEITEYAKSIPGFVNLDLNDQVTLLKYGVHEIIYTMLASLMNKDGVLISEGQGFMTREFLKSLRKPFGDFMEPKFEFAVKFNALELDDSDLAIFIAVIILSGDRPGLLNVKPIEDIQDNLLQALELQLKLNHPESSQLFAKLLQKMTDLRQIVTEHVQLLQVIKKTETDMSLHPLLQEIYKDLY
Sequence of Peroxisome proliferator-activated receptor gamma/Nuclear receptor coactivator 1 (Q15788 whole entry, further chain): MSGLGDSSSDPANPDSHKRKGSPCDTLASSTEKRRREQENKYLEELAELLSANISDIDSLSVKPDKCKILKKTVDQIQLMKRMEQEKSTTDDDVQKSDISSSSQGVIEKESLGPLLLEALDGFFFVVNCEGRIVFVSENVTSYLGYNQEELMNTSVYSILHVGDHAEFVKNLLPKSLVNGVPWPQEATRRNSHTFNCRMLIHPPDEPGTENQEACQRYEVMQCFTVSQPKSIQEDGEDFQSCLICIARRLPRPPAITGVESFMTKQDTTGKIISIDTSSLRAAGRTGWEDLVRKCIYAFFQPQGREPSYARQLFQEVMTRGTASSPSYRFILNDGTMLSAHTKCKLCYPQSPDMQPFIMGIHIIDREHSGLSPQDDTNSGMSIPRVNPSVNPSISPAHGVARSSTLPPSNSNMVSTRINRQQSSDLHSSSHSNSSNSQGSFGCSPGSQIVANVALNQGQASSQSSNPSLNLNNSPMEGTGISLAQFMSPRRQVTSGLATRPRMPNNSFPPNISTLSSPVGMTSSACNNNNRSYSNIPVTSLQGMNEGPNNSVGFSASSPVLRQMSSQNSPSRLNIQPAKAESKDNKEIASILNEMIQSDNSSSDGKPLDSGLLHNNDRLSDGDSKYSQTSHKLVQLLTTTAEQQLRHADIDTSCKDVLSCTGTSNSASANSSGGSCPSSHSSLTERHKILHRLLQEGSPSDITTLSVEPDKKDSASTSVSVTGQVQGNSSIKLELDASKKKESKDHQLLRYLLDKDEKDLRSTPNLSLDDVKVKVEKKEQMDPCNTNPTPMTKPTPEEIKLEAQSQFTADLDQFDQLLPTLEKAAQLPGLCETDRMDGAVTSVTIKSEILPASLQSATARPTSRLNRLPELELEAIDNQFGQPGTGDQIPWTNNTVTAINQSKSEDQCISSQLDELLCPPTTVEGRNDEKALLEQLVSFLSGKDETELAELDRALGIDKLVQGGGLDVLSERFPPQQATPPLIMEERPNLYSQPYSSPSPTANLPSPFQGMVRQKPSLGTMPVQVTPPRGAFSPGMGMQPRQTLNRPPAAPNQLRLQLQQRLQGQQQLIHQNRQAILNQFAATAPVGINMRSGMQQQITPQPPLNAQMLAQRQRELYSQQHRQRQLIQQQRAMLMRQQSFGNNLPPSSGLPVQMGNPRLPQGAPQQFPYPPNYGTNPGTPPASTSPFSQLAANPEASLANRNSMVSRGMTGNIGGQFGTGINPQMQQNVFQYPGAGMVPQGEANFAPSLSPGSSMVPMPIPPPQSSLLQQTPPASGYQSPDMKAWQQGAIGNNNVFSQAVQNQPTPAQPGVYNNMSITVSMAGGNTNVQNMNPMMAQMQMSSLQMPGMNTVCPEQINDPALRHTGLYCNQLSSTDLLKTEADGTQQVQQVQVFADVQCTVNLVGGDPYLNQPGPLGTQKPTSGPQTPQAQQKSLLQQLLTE

[3] = molecular target: Peroxisome proliferator-activated receptor gamma/Nuclear receptor coactivator 3 (Homo sapiens, UniProt P37231); assay: as §1, with “3 (SRC-3)” for “1 (SRC-1)”, “assays: 1301 (Confirmation screen.), 1048 (Primary screen.)]” for “assays (depositor defined):AID1300, AID1808, AID504735, AID631]”; assay type: functional
[4] = molecular target: Peroxisome proliferator-activated receptor gamma/Nuclear receptor coactivator 2 (Homo sapiens, UniProt P37231); assay: TR-FRET dose response biochemical High Throughput Screening assay for agonists of the steroid receptor coactivator 2 (SRC-2) recruitment by the peroxisome proliferator-activated receptor gamma (PPAR gamma): non-selective agonists. [Related pubchem assays: 1297, 1032 ]; assay type: functional
[5] = molecular target: Peroxisome proliferator-activated receptor gamma/Nuclear receptor corepressor 2 (Homo sapiens, UniProt P37231+Q9Y618); assay type: functional
[6] = molecular target: Eukaryotic translation initiation factor 4E (Mus musculus, UniProt P63073); assay: eIF4E–eIF4G protein interaction inhibitors, dose response, biochemical, TR-FRET (AID 855); assay type: functional;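 note: potency for disrupting eIF4E binding to eIF4GI seen as loss of FRET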
Sequence of Eukaryotic translation initiation factor 4E (P63073 whole entry): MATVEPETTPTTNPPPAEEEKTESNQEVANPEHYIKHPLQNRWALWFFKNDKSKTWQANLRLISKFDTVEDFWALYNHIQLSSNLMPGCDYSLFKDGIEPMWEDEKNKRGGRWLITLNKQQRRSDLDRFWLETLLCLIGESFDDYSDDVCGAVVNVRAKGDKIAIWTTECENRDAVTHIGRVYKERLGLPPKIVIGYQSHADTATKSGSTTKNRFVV

[7] = molecular target: T1, Tyrosine-protein phosphatase non-receptor type 7 (Homo sapiens, UniProt P35236); assay type: functional
T1 sequence (P35236 whole entry): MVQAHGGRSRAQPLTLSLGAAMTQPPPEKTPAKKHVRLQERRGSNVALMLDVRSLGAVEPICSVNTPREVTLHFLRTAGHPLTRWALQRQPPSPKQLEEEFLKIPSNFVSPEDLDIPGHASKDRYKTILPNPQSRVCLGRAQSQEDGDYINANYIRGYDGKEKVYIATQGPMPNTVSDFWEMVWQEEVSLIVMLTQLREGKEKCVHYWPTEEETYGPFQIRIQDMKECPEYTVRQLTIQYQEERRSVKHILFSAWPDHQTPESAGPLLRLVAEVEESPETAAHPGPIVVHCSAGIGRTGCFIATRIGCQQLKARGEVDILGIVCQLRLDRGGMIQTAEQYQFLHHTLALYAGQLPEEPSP

[8] = molecular target: T2, Tyrosine-protein phosphatase non-receptor type 22 (Homo sapiens, UniProt Q9Y2R2); assay type: functional
T2 sequence (Q9Y2R2 whole entry): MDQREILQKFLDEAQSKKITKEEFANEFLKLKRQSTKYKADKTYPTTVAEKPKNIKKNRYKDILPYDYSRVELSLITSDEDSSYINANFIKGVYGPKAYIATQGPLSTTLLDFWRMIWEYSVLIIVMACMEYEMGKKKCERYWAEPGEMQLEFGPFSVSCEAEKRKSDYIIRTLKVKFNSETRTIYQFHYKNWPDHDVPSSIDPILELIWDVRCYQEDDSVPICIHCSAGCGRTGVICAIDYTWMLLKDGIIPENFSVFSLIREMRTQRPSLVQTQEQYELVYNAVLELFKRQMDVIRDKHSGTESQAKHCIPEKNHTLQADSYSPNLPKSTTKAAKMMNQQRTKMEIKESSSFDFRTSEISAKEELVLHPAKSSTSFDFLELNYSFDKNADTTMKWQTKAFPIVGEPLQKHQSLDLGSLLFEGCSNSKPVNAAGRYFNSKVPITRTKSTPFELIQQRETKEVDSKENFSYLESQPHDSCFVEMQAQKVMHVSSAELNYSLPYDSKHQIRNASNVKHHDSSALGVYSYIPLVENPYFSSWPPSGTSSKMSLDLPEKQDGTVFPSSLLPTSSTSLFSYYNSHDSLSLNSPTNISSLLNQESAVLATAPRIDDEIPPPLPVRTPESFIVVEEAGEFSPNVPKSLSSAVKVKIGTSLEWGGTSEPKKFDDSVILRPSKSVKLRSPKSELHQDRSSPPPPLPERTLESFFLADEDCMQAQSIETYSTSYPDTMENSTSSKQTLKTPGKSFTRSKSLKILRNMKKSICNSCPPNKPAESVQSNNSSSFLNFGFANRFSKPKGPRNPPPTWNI

[9] = molecular target: T2, Tyrosine-protein phosphatase non-receptor type 22; assay type: functional; remark: listed apart in the source
[10] = molecular target: T3, Alkaline phosphatase, tissue-nonspecific isozyme (Homo sapiens, UniProt P05186)
T3 sequence (P05186 whole entry): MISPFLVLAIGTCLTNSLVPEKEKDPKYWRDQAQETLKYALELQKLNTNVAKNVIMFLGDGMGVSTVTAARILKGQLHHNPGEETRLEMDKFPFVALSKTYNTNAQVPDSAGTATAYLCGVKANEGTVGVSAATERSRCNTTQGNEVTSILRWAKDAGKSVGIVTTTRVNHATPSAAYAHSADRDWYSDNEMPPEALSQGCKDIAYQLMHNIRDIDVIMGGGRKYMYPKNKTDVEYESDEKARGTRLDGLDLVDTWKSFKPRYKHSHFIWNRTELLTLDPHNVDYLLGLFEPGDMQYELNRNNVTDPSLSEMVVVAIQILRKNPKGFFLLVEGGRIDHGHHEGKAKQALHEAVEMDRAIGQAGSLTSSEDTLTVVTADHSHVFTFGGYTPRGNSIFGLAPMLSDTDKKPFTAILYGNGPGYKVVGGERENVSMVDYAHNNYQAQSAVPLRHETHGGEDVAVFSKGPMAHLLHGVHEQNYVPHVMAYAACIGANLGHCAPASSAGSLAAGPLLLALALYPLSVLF

[11] = molecular target: T4, Streptokinase A (Streptococcus pyogenes serotype M1, UniProt P10520); assay: S. pyogenes streptokinase expression inhibitors, potency, dose response, plasminogen activation absorbance, OD405 (AID 1914); assay type: functional, Streptococcus pyogenes M1 GAS;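 note: secreted streptokinase activity via plasminogen activation per viability signal from cell pellet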
T4 sequence (P10520 whole entry): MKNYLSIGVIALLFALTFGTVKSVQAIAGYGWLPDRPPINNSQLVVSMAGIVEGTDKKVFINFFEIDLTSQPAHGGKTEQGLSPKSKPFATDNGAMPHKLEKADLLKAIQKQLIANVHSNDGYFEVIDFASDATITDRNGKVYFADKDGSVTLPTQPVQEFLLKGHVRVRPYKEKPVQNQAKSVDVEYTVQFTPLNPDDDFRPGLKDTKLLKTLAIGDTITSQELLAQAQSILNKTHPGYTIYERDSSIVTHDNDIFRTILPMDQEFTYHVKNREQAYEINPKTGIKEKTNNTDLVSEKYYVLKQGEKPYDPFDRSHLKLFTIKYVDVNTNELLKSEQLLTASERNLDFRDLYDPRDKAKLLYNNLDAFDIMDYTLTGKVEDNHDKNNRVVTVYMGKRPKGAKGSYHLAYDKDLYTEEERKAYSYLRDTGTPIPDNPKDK

[12] = molecular target: Intestinal-type alkaline phosphatase (Mus musculus, UniProt P24822); assay: PubChem AID 488785; assay type: functional
Sequence of Intestinal-type alkaline phosphatase (Mus musculus, UniProt P24822) (P24822 whole entry): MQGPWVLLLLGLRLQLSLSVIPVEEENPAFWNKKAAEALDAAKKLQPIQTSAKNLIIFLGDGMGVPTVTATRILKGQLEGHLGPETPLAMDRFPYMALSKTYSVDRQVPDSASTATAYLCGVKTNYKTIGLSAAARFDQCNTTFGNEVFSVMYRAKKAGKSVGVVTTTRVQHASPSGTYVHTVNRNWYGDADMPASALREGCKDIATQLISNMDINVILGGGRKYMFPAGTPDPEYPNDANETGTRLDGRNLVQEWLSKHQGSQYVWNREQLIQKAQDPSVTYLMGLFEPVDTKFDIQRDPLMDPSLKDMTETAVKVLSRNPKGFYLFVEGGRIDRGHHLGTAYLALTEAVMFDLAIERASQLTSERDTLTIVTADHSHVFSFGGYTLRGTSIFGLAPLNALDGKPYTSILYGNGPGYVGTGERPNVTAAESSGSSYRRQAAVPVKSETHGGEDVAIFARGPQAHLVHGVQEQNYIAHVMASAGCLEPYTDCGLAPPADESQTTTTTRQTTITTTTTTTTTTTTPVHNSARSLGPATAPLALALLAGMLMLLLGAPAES

[13] = molecular target: T3, Alkaline phosphatase, tissue-nonspecific isozyme; assay: TNAP enzyme inhibition by screening hits, dose response, selectivity assay for mouse IAP inhibitor project, biochemical, human TNAP, uHTS hits (AID 488906); assay type: functional
[14] = molecular target: Intestinal-type alkaline phosphatase (Homo sapiens, UniProt P09923); assay: inhibition of human intestinal alkaline phosphatase – biochemical, dose response (AID 488876); assay type: functional
Sequence of Intestinal-type alkaline phosphatase (Homo sapiens, UniProt P09923) (P09923 whole entry): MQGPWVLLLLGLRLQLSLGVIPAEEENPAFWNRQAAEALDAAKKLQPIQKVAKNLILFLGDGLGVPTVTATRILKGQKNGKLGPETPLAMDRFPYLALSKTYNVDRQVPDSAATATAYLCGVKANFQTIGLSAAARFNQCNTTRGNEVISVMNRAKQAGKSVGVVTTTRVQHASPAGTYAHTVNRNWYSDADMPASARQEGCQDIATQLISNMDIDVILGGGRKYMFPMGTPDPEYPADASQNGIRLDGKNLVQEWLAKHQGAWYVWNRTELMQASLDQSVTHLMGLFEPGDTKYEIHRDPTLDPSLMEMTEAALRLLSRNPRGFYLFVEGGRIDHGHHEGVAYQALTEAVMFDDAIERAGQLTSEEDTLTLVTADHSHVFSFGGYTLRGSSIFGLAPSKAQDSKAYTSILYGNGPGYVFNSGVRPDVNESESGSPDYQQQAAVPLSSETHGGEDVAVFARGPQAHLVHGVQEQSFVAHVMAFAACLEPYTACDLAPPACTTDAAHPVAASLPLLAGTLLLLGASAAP

[15] = molecular target: SUMO-activating enzyme (Homo sapiens, UniProt Q9UBT2); assay: SUMOylation inhibitor hit validation, confirmation, SUMOylation inhibitor project, biochemical, AlphaScreen (AID 2018); assay type: functional
[16] = molecular target: T5, Kappa-type opioid receptor (Homo sapiens, UniProt P41145); assay type: functional
T5 sequence (P41145 whole entry): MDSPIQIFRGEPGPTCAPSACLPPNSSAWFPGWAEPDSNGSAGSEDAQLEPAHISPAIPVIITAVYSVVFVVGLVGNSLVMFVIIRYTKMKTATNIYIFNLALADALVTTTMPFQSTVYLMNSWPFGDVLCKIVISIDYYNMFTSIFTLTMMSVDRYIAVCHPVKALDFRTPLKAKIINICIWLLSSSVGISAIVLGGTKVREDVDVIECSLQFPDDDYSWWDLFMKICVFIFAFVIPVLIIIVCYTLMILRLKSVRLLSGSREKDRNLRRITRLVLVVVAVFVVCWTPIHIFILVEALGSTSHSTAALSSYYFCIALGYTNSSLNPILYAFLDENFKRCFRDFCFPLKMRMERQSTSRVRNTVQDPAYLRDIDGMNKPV

[17] = molecular target: Beta-galactosidase (Escherichia coli, UniProt Q8VNN2); assay type: functional
[18] = molecular target: T5, Kappa-type opioid receptor; assay type: functional; remark: listed apart in the source
[19] = molecular target: Nonstructural protein 1 (Influenza A virus, UniProt Q194T2); assay type: functional, Influenza A virus (A/California/07/2009(H1N1))
Sequence of Nonstructural protein 1 (Q194T2 whole entry): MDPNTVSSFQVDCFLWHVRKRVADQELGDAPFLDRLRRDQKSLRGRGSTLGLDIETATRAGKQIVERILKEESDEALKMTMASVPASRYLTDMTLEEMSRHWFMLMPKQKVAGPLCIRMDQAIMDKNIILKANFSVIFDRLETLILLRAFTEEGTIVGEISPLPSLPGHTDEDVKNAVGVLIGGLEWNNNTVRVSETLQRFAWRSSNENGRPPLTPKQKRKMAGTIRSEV

[20] = HeLa cell cytotoxicity, dose response, cytotoxicity control for MgcRacGAP inhibitor project (AID 624300); assay type: functional
[21] = molecular target: Matrix metalloproteinase-14 (Homo sapiens, UniProt P50281); assay: Dose Response confirmation of uHTS hits for a small molecule inhibitors of MT1-MMP activation in a fluorescence assay set 1.; assay type: functional
[22] = molecular target: Mitogen-activated protein kinase 10 (Homo sapiens, UniProt P53779); assay: Dose response biochemical screening assay for inhibitors of c-Jun N-Terminal Kinase 3 (JNK3). [Related pubchem assays: 746 ]
[23] = molecular target: T6, Mannose-6-phosphate isomerase (Homo sapiens, UniProt P34949); assay: PMI enzyme inhibitors, confirmation, biochemical, fluorescence intensity (AID 1535)
T6 sequence (P34949 whole entry): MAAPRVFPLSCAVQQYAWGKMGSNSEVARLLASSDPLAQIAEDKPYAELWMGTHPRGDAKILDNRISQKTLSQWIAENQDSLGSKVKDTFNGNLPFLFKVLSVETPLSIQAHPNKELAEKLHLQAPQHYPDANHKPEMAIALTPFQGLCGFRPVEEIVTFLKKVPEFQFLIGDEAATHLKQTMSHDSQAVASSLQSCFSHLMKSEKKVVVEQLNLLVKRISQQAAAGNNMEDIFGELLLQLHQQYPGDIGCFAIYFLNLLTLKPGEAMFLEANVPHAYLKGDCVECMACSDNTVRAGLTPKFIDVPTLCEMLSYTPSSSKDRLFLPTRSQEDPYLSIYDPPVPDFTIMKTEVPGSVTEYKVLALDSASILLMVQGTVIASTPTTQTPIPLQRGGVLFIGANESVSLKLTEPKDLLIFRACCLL

[24] = molecular target: Phosphomannomutase 2 (Homo sapiens, UniProt O15305); assay: Counter screen SAR assay for PMM2 inhibitors via a fluorescence intensity assay. [Related pubchem assays (depositor defined):AID1545, AID1574]
Sequence of Phosphomannomutase 2 (O15305 whole entry): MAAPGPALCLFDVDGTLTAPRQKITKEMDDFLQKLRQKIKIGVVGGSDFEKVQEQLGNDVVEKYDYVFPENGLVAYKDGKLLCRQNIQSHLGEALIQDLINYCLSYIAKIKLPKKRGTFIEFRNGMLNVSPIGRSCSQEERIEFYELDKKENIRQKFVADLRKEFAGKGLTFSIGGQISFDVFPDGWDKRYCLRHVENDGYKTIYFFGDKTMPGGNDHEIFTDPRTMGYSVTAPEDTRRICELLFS

[25] = molecular target: Cytochrome P450 2D6 (Homo sapiens, UniProt P10635);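 note: CYP2D6 member of a cytochrome P450 panel assay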
Sequence of Cytochrome P450 2D6 (P10635 whole entry): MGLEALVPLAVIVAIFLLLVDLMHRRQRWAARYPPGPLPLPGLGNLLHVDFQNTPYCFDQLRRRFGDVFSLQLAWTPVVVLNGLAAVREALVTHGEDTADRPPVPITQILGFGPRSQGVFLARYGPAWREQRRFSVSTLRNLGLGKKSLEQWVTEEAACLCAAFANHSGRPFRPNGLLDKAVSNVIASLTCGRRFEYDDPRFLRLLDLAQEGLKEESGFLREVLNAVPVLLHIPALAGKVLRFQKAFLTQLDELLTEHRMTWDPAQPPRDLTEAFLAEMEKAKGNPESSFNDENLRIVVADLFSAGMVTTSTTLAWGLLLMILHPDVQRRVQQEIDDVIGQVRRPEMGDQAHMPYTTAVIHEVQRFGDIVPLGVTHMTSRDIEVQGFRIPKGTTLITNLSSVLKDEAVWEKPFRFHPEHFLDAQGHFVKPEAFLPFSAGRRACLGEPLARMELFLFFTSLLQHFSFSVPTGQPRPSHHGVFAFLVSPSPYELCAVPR

[26] = molecular target: T7, Cytochrome P450 1A2 (Homo sapiens, UniProt P05177);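 note: PubChem cytochrome P450 panel assay, CYP1A2 panel member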
T7 sequence (P05177 whole entry): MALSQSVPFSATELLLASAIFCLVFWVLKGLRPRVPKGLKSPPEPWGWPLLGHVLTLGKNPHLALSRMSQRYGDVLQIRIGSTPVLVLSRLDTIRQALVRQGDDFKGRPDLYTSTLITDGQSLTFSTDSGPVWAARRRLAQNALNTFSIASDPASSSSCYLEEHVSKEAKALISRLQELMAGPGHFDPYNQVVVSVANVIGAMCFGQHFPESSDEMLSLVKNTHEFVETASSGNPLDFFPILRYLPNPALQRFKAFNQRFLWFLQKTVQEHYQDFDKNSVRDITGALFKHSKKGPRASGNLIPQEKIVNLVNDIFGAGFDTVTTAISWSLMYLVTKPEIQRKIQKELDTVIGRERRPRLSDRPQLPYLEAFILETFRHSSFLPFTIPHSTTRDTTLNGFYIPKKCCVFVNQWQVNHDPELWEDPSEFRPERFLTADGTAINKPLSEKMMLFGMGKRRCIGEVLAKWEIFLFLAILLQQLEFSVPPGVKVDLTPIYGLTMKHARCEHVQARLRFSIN

[27] = molecular target: Induced myeloid leukemia cell differentiation protein Mcl-1 (Homo sapiens, UniProt Q07820); assay type: functional
Sequence of Induced myeloid leukemia cell differentiation protein Mcl-1 (Q07820 whole entry): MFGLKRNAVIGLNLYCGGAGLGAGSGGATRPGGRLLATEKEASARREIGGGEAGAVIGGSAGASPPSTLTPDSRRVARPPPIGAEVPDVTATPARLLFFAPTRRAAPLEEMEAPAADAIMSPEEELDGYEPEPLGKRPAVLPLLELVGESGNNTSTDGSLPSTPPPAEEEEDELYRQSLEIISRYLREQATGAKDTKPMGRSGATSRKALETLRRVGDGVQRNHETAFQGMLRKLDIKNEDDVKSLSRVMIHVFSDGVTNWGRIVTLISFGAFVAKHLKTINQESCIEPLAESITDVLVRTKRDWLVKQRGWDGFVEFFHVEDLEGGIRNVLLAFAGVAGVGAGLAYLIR

[28] = molecular target: T6, Mannose-6-phosphate isomerase; assay: human PMI inhibitors, high substrate, primary screen, biochemical, fluorescence intensity, high mannose 6-phosphate (AID 1220)
[29] = tested on: INS1; assay: beta cell apoptosis inhibitors, cytokine rescue, dose response, luminescence, retest (AID 449756); assay type: functional, cell-based; details: Rattus norvegicus;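 note: cell death triggered by IL-1 beta plus TNF-alpha plus IFN-gamma mixture; protective hits raise ATP signal compared with cytokine alone wells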

SMILES: O=c1oc2cc(O)c(Cl)cc2c2ccccc12
- IC50 [1]: > 39.8 µM (not active)
- EC50 [2]: > 79.4 µM (inactive)
- EC50 [3]: > 79.4 µM (not active)
- EC50 [4]: 3.81 µM (active)
- IC50 [5]: 1.39 µM (active)

SMILES: O=C(CCN1C(=O)C2C3C=CC(C3)C2C1=O)Nc1ccccn1 (stereo not given)
- IC50 [6]: > 64 µM (inactive)

SMILES: CC(=O)NS(=O)(=O)c1ccc(NC(=O)C2C3C=CC(C3)C2C(=O)O)cc1 (stereo not given)
- IC50 [7]: > 79.4 µM (inactive)
- IC50 [8]: > 79.4 µM (inactive)
- IC50 [9]: > 79.4 µM (inactive)

SMILES: COc1ccc(CNC(=O)c2cc(-c3ccccc3O)[nH]n2)cc1
- IC50 [7]: > 79.4 µM (inactive)
- EC50 [10]: > 100 µM (not active)
- IC50 [8]: > 79.4 µM (inactive)
- IC50 [9]: > 79.4 µM (inactive)

SMILES: FC(F)Sc1ccc(NC(=S)NC(c2ccccc2)c2ccccc2)cc1
- EC50 [11]: > 150 µM (not active)
- IC50 [12]: 0.998 µM (active)
- IC50 [13]: 41.1 µM (active)
- IC50 [14]: > 100 µM (inactive)

SMILES: O=C(Nc1cccc2nsnc12)c1ccc(-c2ccc(Br)cc2)o1
- IC50 [15]: 9.92 µM (active)

SMILES: CC1=NN(c2ccccc2)C(=O)/C1=C/C=C/c1ccc(N(C)C)cc1
- IC50 [16]: 8.28 µM (active)
- EC50 [17]: 7.93 µM (active)
- IC50 [18]: > 32 µM
- IC50 [19]: 3.14 µM (active)
- CC50 [20]: 95.1 µM (active)
- IC50 [21]: > 80 µM (inactive)

SMILES: CCOc1ccc(C(=O)C2=C(O)C(=O)N(c3cc(C)on3)C2c2ccccc2OC)cc1 (stereo not given)
- EC50 [2]: > 79.4 µM (inactive)
- EC50 [3]: > 79.4 µM (not active)
- EC50 [4]: > 26.5 µM (not active)
- IC50 [22]: > 93.1 µM (not active)

SMILES: CCc1nnc(/N=c2\ssnc2Cl)s1
- IC50 [23]: 13.1 µM (active)
- IC50 [24]: > 100 µM (inactive)

SMILES: COc1cccc(CNC(=O)CCNS(=O)(=O)c2ccc3[nH]c(=O)oc3c2)c1
- IC50 [12]: 13.9 µM (active)
- IC50 [13]: 63.2 µM (active)
- IC50 [14]: > 100 µM (inactive)

SMILES: Cc1ccc(N2C(=O)c3[nH]nc(C)c3C2c2ccccn2)cc1 (stereo not given)
- AC50 [25]: inconclusive

SMILES: O=C(O)[C@@H]1[C@@H](C(=O)O)[C@]23C[C@@]2(C(=O)O)[C@]2(C(=O)O)CCC3=C3CCCC312
- AC50 [26]: 2.51 µM (inconclusive)
- AC50 [25]: inconclusive

SMILES: CCN1c2ccccc2N(C)C1(C)c1ccccc1 (stereo not given)
- IC50 [27]: 9.19 µM (active)
- IC50 [28]: 13.7 µM (active)
- IC50 [6]: 49.4 µM (inactive)
- AC50 [29]: 2.14 µM (active)
